# Measurements: publication PMC10091362 (Lab on a Chip, 2023)
# B1: horseradish peroxidase (Armoracia rusticana) (protein)
# chain: QLTPTFYDNSCPNVSNIVRDTIVNELRSDPRIAASILRLHFHDCFVNGCDASILLDNTTSFRTEKDAFGNANSARGFPVIDRMKAAVESACPRTVSCADLLTIAAQQSVTLAGGPSWRVPLGRRDSLQAFLDLANANLPAPFFTLPQLKDSFRNVGLNRSSDLVALSGGHTFGKNQCRFIMDRLYNFSNTGLPDPTLNTTYLQTLRGLCPLNGNLSALVDFDLRTPTIFDNKYYVNLEEQKGLIQSDQELFSSPNATDTIPLVRSFANSTQTFFNAFVEAMDRMGNITPLTGTQGQIRLNCRVVNSNS
# What was measured:
# beta-galactosidase = beta-galactosidase (Escherichia coli, UniProt P00722); experiment: droplet microfluidic steady-state Michaelis–Menten kinetics; type: biochemical
# purified protein = substrate: CC(=O)N1c2ccc(O)cc2Oc2cc(O)ccc21; experiment: purified protein; details: H2O2 (co-substrate)
# beta-galactosidase, sequence (P00722 2-1024): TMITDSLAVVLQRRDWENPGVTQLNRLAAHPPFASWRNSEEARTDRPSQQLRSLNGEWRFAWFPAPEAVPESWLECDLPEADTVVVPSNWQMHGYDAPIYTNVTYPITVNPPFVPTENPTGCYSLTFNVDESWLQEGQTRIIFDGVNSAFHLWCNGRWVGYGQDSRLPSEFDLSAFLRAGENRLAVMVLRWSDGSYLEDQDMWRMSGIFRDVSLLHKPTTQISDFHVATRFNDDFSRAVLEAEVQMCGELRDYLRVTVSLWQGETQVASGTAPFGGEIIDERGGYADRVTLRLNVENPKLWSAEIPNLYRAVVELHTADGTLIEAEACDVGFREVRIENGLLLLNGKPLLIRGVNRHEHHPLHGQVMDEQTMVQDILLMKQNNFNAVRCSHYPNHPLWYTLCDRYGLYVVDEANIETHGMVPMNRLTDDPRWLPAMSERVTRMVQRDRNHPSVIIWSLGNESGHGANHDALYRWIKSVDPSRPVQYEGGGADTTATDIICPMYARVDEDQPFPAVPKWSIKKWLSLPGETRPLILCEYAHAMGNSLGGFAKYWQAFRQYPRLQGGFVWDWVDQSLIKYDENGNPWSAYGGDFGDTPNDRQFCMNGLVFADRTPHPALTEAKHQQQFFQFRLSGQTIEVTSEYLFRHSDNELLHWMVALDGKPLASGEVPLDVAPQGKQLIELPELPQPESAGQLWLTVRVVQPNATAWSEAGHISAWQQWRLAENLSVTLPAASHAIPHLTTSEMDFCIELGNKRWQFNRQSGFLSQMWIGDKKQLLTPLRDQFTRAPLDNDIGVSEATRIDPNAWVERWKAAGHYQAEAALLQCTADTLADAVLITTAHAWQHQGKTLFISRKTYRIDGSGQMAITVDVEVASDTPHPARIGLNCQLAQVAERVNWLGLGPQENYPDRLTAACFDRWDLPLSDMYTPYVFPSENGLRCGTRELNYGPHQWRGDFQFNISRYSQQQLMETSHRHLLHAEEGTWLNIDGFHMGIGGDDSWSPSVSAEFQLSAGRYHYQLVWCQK
Molecule,Km (beta-galactosidase),Km (purified protein)
O=c1ccc2nc3ccc(O[C@@H]4O[C@H](CO)[C@H](O)[C@H](O)[C@H]4O)cc3oc-2c1 [resorufin beta-D-galactopyranoside],408 ± 140 µM,
O=C1OC2(c3ccc(O[C@@H]4O[C@H](CO)[C@H](O)[C@H](O)[C@H]4O)cc3Oc3cc(O[C@@H]4O[C@H](CO)[C@H](O)[C@H](O)[C@H]4O)ccc32)c2ccccc21 [Fluorescein di-beta-D-galactopyranoside],19.8 ± 1.4 µM,
B1,,20 ± 1.8 µM
